Experimental data: patent US12202835B2, “Substituted aromatic ring-linked dioxinoquinazolines and dioxinoquinolines as kinase inhibitors” (BEIJING SCITECH-MQ PHARMACEUTICALS LIMITED, priority 2018, dated 2025)

Tests used:
TRKA kinase = TRKA kinase (Homo sapiens (Human), UniProt P04629); assay: Assay of small molecular compounds for inhibiting the activity of TRKA kinase (LANCE TR-FRET); assay type: biochemical
How it was run: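 LANCE TR-FRET with ULight-TK peptide; compounds pre-incubated 5 min with TRKA (2× solution 2 nM), then substrate/ATP added (4× mix: 400 nM peptide, 40 μM ATP). Reaction 60 min at room temperature in dark, 1% DMSO final; stopped, detection developed 60 min, signal read.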

Ba/F3-AXL cells = assay: Assay for inhibiting the proliferation of Ba/F3-AXL cells (CCK-8); assay type: cell-based; details: 72 hours of incubation, medium with 100 ng/mL hGas6, CCK-8
Method: The values were then imported into Graphpad Prism 5 software for curve fitting, and IC50 was calculated.

[1] = tested on: Ba/F3 LMNA-NTRK1-G595R cells; assay: Assay for inhibiting the proliferation of Ba/F3 LMNA-NTRK1-G595R cells (CCK-8); assay type: cell-based; details: Mus musculus, BaF3
How it was run: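 Cells seeded in 96-well plates overnight, then exposed 72 h to 9 three-fold dilutions of compound (0.25% DMSO final). Viability by CCK-8 (1-2 h at 37° C., OD 450 nm), survival normalized to untreated and cell-free blanks; IC50 by curve fitting.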

Chain of TRKA kinase (P04629 33-796): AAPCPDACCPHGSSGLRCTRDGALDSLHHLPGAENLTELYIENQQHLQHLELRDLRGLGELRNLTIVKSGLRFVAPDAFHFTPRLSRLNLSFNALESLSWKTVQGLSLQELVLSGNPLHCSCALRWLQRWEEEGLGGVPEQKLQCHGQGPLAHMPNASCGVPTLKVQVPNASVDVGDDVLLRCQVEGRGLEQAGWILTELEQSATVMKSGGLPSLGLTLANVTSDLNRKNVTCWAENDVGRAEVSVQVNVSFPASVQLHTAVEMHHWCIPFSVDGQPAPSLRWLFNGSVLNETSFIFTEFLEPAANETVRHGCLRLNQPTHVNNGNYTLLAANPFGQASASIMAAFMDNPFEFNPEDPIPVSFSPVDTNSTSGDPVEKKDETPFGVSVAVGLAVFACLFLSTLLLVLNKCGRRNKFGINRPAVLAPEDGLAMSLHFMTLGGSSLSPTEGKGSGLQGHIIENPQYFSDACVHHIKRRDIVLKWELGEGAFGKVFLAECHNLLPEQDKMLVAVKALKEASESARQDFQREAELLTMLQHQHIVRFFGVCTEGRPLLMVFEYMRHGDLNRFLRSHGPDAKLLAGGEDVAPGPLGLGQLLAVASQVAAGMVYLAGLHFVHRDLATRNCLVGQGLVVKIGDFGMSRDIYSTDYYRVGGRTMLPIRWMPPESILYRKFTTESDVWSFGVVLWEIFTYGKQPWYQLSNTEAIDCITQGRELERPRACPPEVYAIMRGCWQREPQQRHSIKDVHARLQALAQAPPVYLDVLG

IC50 (TRKA kinase): 50 to 500 nM
IC50 (Ba/F3-AXL cells): < 50 nM
IC50 [1]: 50 to 200 nM
SMILES: COCCn1cc(C(=O)Nc2ccc(Oc3ccnc4cc(OC)c5c(c34)OCCO5)c(F)c2)c(=O)n(-c2ccc(F)cc2)c1=O [Example 46, N-(3-fluoro-4-((5-methoxy-2,3-dihydro-[1,4]dioxino[2,3-f]quinolin-10-yl)oxy)phenyl)-3-(4-fluorophenyl)-1-(2-methoxyethyl)-2,4-dioxo-1,2,3,4-tetrahydropyrimidine-5-carboxamide]
